Laboratory results published in patent publication US12551532B2, “Long-acting amylin receptor agonists and uses thereof” (Eli Lilly and Company, priority 2021, dated 2026).
Starred links: 1 amine or outer side, 2 acyl side, 3 side chain; linkers in the order of their positions; H or OH if unused. Positions of bridges follow the written chain, without caps; N, C: chain ends. Non-standard residues stand in square brackets, D forms with d. Residues, ends and D or L forms follow the SMILES beside them. Groups on a side chain read outwards from the residue. *: point of attachment. C20 diacid = O=C(O)CCCCCCCCCCCCCCCCCCC(=O)*; γGlu = O=C(O)[C@H](CCC(=O)[*:2])N[*:1]; αMeF = C[C@](N)(Cc1ccccc1)C(=O)O; NMeD = CN[C@@H](CC(=O)O)C(=O)O; NMeN = CN[C@@H](CC(N)=O)C(=O)O; Orn = NCCC[C@H](N)C(=O)O; AEEA = NCCOCCOCC(=O)O; CH2 = C([*:1])[*:2]

What was measured:
hAMY1R = target: T1, hAMY1R (Homo sapiens, UniProt O60894+P30988); assay: hAMY1R cAMP functional activity (HTRF); assay type: cell-based; details: ±SE; UMUC3 cells overexpressing hAMY1R; relative EC50
T1 construct: expressed in transfected cells
Method: (§1) The AMY1 and CT receptors are GPCRs that are functionally coupled to Gas proteins. […] In vitro activity of peptides is measured by the amount of cAMP formed in human AMY1R and CTR overexpressed cells.
Human AMY1R stable cell lines are generated by further transfecting human RAMP1-pCMVpuroPB (T14213) into UMUC3 hCTR clone cells. After selection, the mRNA levels human RAMP1 from different clones are measured to confirm the expression of human AMY1R.
(§2) hAMY1R cells are cultured in MEM 1× (Corning) supplemented with 10% FBS, 1% antibiotic/antimycotic solution, 1 mM sodium pyruvate, 1×MEM NEAA, 1× GlutaMAX-I, 200 μg/mL hygromycin B, and 0.4 μg/mL puromycin. The hCTR cells are cultured in the same medium lacking the puromycin. Cultured cells are grown to 70% confluency and then incubated overnight with fresh medium.
(§3) Peptides diluted in DMSO are added (200 nL/well) in a 1:3 dilution series using ECHO acoustic liquid handler (Beckman). Cultured cells are detached with TrypLE Express (Gibco), resuspended in assay buffer, and 10 μL containing 1200 cells/well (hCTR) or 1500 cells/well (hAMY1R) are dispensed into each well. The plates are incubated at room temperature for 1 hour.
(§4) The amount of intracellular cAMP is quantitated using HTRF technology (Homogeneous Time Resolved Fluorescence; Cisbio) as per vendor instructions. Briefly, 10 μL cAMP-d2 conjugate and 10 μL anti-cAMP-cryptate conjugate in lysis buffer are incubated with the treated cells at room temperature for 60 min. […] The raw data are converted to cAMP amount (pmol/well) using a cAMP standard curve generated for each experiment.

human CT receptors = target: T2, human CT receptors (Homo sapiens, UniProt P30988); assay: hCTR cAMP functional activity (HTRF); assay type: cell-based; details: ±SE; UMUC3 cells overexpressing hCTR; relative EC50
T2 construct: expressed in transfected cells
T2 sequence (P30988 25-474): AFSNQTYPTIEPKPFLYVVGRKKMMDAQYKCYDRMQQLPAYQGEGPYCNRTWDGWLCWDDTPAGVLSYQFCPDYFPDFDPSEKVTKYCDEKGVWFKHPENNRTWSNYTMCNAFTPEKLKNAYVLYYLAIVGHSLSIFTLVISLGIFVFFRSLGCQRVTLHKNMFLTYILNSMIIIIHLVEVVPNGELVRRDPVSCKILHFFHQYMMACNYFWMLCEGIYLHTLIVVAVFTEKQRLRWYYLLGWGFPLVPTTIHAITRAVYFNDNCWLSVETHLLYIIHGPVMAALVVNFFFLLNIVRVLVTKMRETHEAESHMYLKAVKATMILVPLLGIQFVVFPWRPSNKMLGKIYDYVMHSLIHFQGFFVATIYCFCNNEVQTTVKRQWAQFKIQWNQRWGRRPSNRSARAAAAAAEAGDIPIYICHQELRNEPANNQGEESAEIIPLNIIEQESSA
Method: as §1
Human CT receptors are stably expressed in human urinary bladder cells (UM-UC-3, or UMUC3) under control of a pcDNA expression vector. […] After 20 days under selection, the mRNA levels from different clones are measured to confirm the expression of hCTR. To determine the function of over-expressed hCTR cells, the intracellular cAMP levels in response to salmon calcitonin are measured and compared to the expression of hCTR mRNA in each clone.
as §2, §3, §4

T1 sequence (O60894 27-148 partner, one chain of several): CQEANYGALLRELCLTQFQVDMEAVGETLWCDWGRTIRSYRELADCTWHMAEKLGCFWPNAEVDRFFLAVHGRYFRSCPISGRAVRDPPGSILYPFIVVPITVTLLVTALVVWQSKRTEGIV

Structure (SMILES)	EC50 (hAMY1R)	EC50 (human CT receptors)
CC[C@H](C)[C@H](NC(=O)[C@@H]1CCCN1C(=O)CNC(=O)[C@H](Cc1ccccc1)NC(=O)[C@H](CC(=O)O)N(C)C(=O)[C@H](CC(N)=O)NC(=O)[C@H](CO)NC(=O)[C@H](CO)NC(=O)[C@H](CCCNC(=N)N)NC(=O)[C@@H](NC(=O)[C@H](CC(C)C)NC(=O)[C@](C)(Cc1ccccc1)NC(=O)[C@H](CCC(=O)O)NC(=O)[C@H](C)NC(=O)[C@H](CC(C)C)NC(=O)[C@H](CCCN)NC(=O)CNC(=O)[C@@H](NC(=O)[C@H](C)NC(=O)[C@@H]1CSCSC[C@H](NC(=O)[C@@H](N)CCCCN)C(=O)N[C@@H](CCC(=O)O)C(=O)N[C@@H]([C@@H](C)O)C(=O)N[C@@H](C)C(=O)N[C@@H]([C@@H](C)O)C(=O)N1)[C@@H](C)O)C(C)C)C(=O)N[C@@H](CC(C)C)C(=O)N1CCC[C@H]1C(=O)N1CCC[C@H]1C(=O)N[C@H](C(=O)N[C@@H](CCC(=O)O)C(=O)N[C@H](C(=O)NCC(=O)N[C@@H](CO)C(=O)N[C@@H](CC(N)=O)C(=O)N[C@H](C(=O)N[C@@H](Cc1ccc(O)cc1)C(N)=O)[C@@H](C)O)C(C)C)[C@@H](C)O [Compound V, KCETATCATG-Orn-LAE-αMeF-LVRSSN-NMeD-FGPILPPTEVGSNTY-NH2] (H-KCETATCATG[Orn]LAE[αMeF]LVRSSN[NMeD]FGPILPPTEVGSNTY-NH2; linker 2-7 via CH2)	0.139 ± 0.017 nM	17 ± 2.44 nM
CC(C)C[C@H](NC(=O)[C@H](CCCN)NC(=O)CNC(=O)[C@@H](NC(=O)[C@H](C)NC(=O)[C@@H]1CSCSC[C@H](NC(=O)CC[C@H](N)C(=O)O)C(=O)N[C@@H](CC(N)=O)C(=O)N[C@@H]([C@@H](C)O)C(=O)N[C@@H](C)C(=O)N[C@@H]([C@@H](C)O)C(=O)N1)[C@@H](C)O)C(=O)N[C@@H](C)C(=O)N[C@@H](CCC(=O)O)C(=O)N[C@@](C)(Cc1ccccc1)C(=O)N[C@@H](CC(C)C)C(=O)N[C@H](C(=O)N[C@@H](CCCNC(=N)N)C(=O)N[C@@H](CO)C(=O)N[C@@H](CO)C(=O)N[C@@H](CC(N)=O)C(=O)N(C)[C@@H](CC(N)=O)C(=O)N[C@@H](Cc1ccccc1)C(=O)NCC(=O)N1CCC[C@H]1C(=O)N[C@@H](CCCCN)C(=O)N[C@@H](CC(C)C)C(=O)N1CCC[C@H]1C(=O)N1CCC[C@H]1C(=O)N[C@H](C(=O)N[C@@H](CCC(=O)O)C(=O)N[C@H](C(=O)NCC(=O)N[C@@H](CO)C(=O)N[C@@H](CC(N)=O)C(=O)N[C@H](C(=O)N[C@@H](Cc1ccc(O)cc1)C(N)=O)[C@@H](C)O)C(C)C)[C@@H](C)O)C(C)C [Compound I, γE-CNTATCATG-Orn-LAE-αMeF-LVRSSN-NMeN-FGPKLPPTEVGSNTY-NH2] (γGlu-CNTATCATG[Orn]LAE[αMeF]LVRSSN[NMeN]FGPKLPPTEVGSNTY-NH2; linker 1-6 via CH2)	0.133 ± 0.012 nM	18 ± 1.08 nM
CC(C)C[C@H](NC(=O)[C@H](CCCN)NC(=O)[C@H](CCC(N)=O)NC(=O)[C@@H](NC(=O)[C@H](C)NC(=O)[C@@H]1CSCSC[C@H](NC(=O)CC[C@H](N)C(=O)O)C(=O)N[C@@H](CC(N)=O)C(=O)N[C@@H]([C@@H](C)O)C(=O)N[C@@H](C)C(=O)N[C@@H]([C@@H](C)O)C(=O)N1)[C@@H](C)O)C(=O)N[C@@H](C)C(=O)N[C@@H](CCC(=O)O)C(=O)N[C@@H](Cc1ccccc1)C(=O)N[C@@H](CC(C)C)C(=O)N[C@H](C(=O)N[C@@H](CCCNC(=N)N)C(=O)N[C@@H](CO)C(=O)N[C@@H](CO)C(=O)N[C@@H](CC(N)=O)C(=O)N[C@@H](CC(N)=O)C(=O)N[C@@H](Cc1ccccc1)C(=O)NCC(=O)N1CCC[C@H]1C(=O)N[C@@H](CCCCNC(=O)COCCOCCNC(=O)COCCOCCNC(=O)CC[C@H](NC(=O)CCCCCCCCCCCCCCCCCCC(=O)O)C(=O)O)C(=O)N[C@@H](CC(C)C)C(=O)N1CCC[C@H]1C(=O)N1CCC[C@H]1C(=O)N[C@H](C(=O)N[C@@H](CCC(=O)O)C(=O)N[C@H](C(=O)NCC(=O)N[C@@H](CO)C(=O)N[C@@H](CC(N)=O)C(=O)N[C@H](C(=O)N[C@@H](Cc1ccc(O)cc1)C(N)=O)[C@@H](C)O)C(C)C)[C@@H](C)O)C(C)C [Compound XII] (γGlu-CNTATCATQ[Orn]LAEFLVRSSNNFGPK([AEEA-AEEA-γGlu-C20 diacid])LPPTEVGSNTY-NH2; linker 1-6 via CH2)	0.113 ± 0.034 nM	25.9 ± 7.62 nM
